{"source": "paper PMC9785777", "about": "“Antidiabetic Potential of Novel 1,3,5-Trisubstituted-2-Thioxoimidazloidin-4-One Analogues: Insights into α-Glucosidase, α-Amylase, and Antioxidant Activities” (Pharmaceuticals, 2022)", "key": {"[1]": {"target": "T1, α-glucosidase enzyme (EC3.2.1.20) (Saccharomyces cerevisiae, UniProt P53341)", "T1 construct": "purchased Sigma-Aldrich", "T1 sequence (P53341 whole entry)": "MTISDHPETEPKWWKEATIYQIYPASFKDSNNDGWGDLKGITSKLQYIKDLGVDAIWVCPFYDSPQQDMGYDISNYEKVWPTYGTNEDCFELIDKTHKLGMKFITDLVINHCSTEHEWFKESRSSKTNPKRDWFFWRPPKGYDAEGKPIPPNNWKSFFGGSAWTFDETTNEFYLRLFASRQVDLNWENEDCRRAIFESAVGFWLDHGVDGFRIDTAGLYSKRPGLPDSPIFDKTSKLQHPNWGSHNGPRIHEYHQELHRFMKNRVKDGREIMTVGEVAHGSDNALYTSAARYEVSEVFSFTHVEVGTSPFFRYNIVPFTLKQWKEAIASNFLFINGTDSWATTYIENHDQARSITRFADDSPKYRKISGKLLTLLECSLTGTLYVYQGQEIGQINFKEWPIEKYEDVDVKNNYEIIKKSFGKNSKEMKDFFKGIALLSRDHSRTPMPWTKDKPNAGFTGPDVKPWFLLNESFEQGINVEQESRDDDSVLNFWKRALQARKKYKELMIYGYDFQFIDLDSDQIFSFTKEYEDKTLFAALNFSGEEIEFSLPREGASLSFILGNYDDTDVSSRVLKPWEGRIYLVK", "assay": "biochemical", "conditions": "for inhibition at 1 µg/mL / inhibition at 10 µg/mL / inhibition at 100 µg/mL / inhibition at 1000 µg/mL: read-out: % inhibition of α-glucosidase", "from_the_text": "The α-glucosidase enzyme is mainly expressed in the small intestine and catalyzes the breakdown of carbohydrates into glucose units by cleaving the glucosidic bonds. α-Glucosidase blockers are the first-line drugs for the treatment of non-insulin-dependent DM by suppressing carbohydrate hydrolysis and consequently retarding glucose absorption into the bloodstream and reducing postprandial hyperglycemia. α-Glucosidase is, thus, considered to be an attractive pharmaceutical target for the treatment of […] via control of the blood glucose levels. Accordingly, there is a continuous need to develop a potential class of α-glucosidase inhibitors. Toward this aim, we explored the potency of the synthesized compounds to inhibit the activity of α-glucosidase. We examined the inhibitory activity of the synthesized compounds following the reported assay by Peytam et al.. Thus, the compounds at different concentrations (1000, 100, 10, and 1 µg/mL) were incubated with α-glucosidase and subsequently […] was added and the absorbance was monitored at 405 nm. […] To further investigate the structural aspects of 1,3-thiohydantoin scaffold, a substitution at the N1-position with the methyl-proponate group was performed. […] Nevertheless, it has adverse gastrointestinal effects including diarrhea and flatulence. Thus, the discovery of a novel class of potent antidiabetic agents is urgently demanded.\nAn ELISA reader was used to assess the inhibition of α-glucosidase by 1,3,5-trisubstituted-2-thioxoimidazolidin-4-ones derivatives at various doses (1000, 100, 10, and 1 µg/mL) according to Peytam et al.. […] Then, the substrate (25 µL, 4 mM) was added to the mentioned mixture and allowed to incubate at 37 °C for 20 min. Finally, the change in absorbance at 405 nm was monitored using a Cytation 3 hybrid microplate reader (BioTek, Winooski, VT, USA). […] GraphPad prism 6.0 was used to calculate the IC50 values of the investigated compounds from the nonlinear regression curve (Systat Software, Inc. Tools for Science) (https://www.graphpad.com/scientific-software/prism/ (accessed on 1 September 2022))."}, "α-amylase enzyme": {"target": "T2, α-amylase enzyme (Sus scrofa, UniProt P00690)", "T2 sequence (P00690 16-511)": "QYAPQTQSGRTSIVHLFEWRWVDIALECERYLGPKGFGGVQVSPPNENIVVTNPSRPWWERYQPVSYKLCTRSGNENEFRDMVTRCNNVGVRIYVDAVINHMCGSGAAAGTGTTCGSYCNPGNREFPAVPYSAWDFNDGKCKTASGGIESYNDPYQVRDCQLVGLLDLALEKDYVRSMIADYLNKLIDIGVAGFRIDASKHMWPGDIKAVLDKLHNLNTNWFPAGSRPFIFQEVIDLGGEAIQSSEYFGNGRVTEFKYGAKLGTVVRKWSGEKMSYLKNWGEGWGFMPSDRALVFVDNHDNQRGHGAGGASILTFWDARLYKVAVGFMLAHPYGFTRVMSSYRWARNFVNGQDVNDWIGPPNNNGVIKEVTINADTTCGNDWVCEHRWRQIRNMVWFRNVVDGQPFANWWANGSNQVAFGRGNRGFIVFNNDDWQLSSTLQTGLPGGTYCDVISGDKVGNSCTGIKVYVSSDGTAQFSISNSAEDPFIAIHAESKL", "assay": "α-amylase inhibition assay (DNSA, absorbance 595 nm)", "assay_type": "biochemical", "from_the_text": "Furthermore, pancreatic α-amylase mediates the activity of glycoproteins in the small intestine membrane, such as sucrase-isomaltase and sodium/glucose cotransporter 1, via binding with N-linked oligosaccharides. […] However, attempts to find novel antagonists with enhanced effectiveness and minimum adverse effects are still worth investigating. In this regard, we examined the inhibitory activity of the synthesized compounds 4a–b, 5a–b, and 7a–b toward α-amylase activity. Therefore, compounds at different concentrations (100, 10, 1, and 0.1 µg/mL) were mixed with the α-amylase enzyme and subsequently 3,5-dinitrosalicylic acid was added and the absorption was assessed at 595 nm. […] To date, several potent natural and synthetic antagonists with dual inhibitory activities toward α-amylase and α-glucosidase enzymes have been reported which succeeded in being applied in clinics.\nThe inhibitory activity of synthesized 1,3,5-trisubstituted-2-thioxoimidazolidin-4-ones derivatives toward α-amylase activity was determined by ELISA analysis according to Bernfeld and Colowick. The α-amylase enzyme was provided by Sigma-Aldrich and the stock solution was prepared in DMSO (10 mg/10 mL). […] Briefly, α-amylase enzyme (100 mg, 1 unit per mL) was mixed in 100 mL of a 20 mM sodium phosphate buffer (pH 6.9). […] After incubation, 100 μL of the DNSA reagent was added to this mixture, and then heated in a water bath at 85 °C for 15 min. The reaction mixture was taken from the water bath, cooled, and the absorbance value at 595 nm was assessed. Individual blanks were created in order to adjust the background absorbance. A control experiment was carried out following the same protocol using DMSO. The α-amylase enzyme activity and percentage of inhibition were determined using the following formula: % Inhibition=control−test/control×100"}, "[2]": {"assay": "DPPH free radical scavenging assay", "from_the_text": "The antioxidant capability of compounds 5a and 7a was estimated utilizing the DPPH (2,2-diphenyl-1- picrylhydrazyl) scavenging assay to assess the free radical scavenger activity. DPPH is a stable free radical substrate with a purple color which upon reaction with an antioxidant compound, converts into 1,1-diphenyl-2-picryl hydrazine, a […] compound. The DPPH assay is widely applied for the investigation of superoxide radical scavenging activity. In this regard, compounds 5a and 7a were incubated at different concentrations (3.12, 6.25, 12.5, 25, 50, 100, and 200 µg/mL) with DPPH substrate and the absorption was assessed by ELISA at 510 nm. In our investigations, Trolox, a water-soluble analogue of vitamin E, was applied as a standard antioxidant reference drug. […] Further, Qamar et al. synthesized and evaluated the antioxidant activity of some novel N3-substituted-2-thiohydantoins.\nAccording to Valko et al., the ELISA approach was used to analyze the free-radical DPPH scavenging activity of compounds (5a and 7a) at different concentrations (3.12, 6.25, 12.5, 25, 50, 100, and 200 µg/mL). The DPPH assay assesses the hydrogen-donating activity and thus provides an evaluation of the antioxidant activity via estimating the DPPH free-radical scavenging activity. The color intensity of the reaction mixture was measured after a purple-colored stable free radical (DPPH) was reduced into the yellow-colored diphenylpicryl hydrazinem. Briefly, 200 µL of different concentrations of compounds 5a and 7a were mixed with 50 µL of DPPH (0.659 mM) solution, and the mixture was incubated at 25 °C for 20 min. The absorbance of the reaction mixture was estimated after incubation at 510 nm. In our investigations, trolox was employed as standard reference drug. A control reaction was performed, and the inhibitory efficiency of DPPH radical-scavenging activity was determined using the equation below: % Inhibition = (A0 − A1)/A0 × 100 (1) where A0 is absorbance of […] and A1 is the absorbance of the compound."}}, "note": "pIC50: −log10 of the molar value."}
{"smiles": "C[C@H]1O[C@H](O[C@H]2[C@H](O)[C@@H](O)[C@@H](O[C@H]3[C@H](O)[C@@H](O)C(O)O[C@@H]3CO)O[C@@H]2CO)[C@H](O)[C@@H](O)[C@@H]1N[C@H]1C=C(CO)[C@@H](O)[C@H](O)[C@H]1O", "note": "(stereo partly shown) [Acarbose, reference compound]", "values": [{"measurement": "inhibition at 1 µg/mL", "setting": "[1]", "result": 31.8, "unit": "%"}, {"measurement": "inhibition at 10 µg/mL", "setting": "[1]", "result": 58.4, "unit": "%"}, {"measurement": "inhibition at 100 µg/mL", "setting": "[1]", "result": 76.9, "unit": "%"}, {"measurement": "inhibition at 1000 µg/mL", "setting": "[1]", "result": 88.4, "unit": "%"}, {"measurement": "% inhibition of α-amylase", "setting": "α-amylase enzyme; 0.1 µg/mL (log -1)", "result": 37.2, "unit": "%"}, {"measurement": "% inhibition of α-amylase", "setting": "α-amylase enzyme; 1 µg/mL (log 0)", "result": 58.3, "unit": "%"}, {"measurement": "% inhibition of α-amylase", "setting": "α-amylase enzyme; 10 µg/mL (log 1)", "result": 80.3, "unit": "%"}, {"measurement": "% inhibition of α-amylase", "setting": "α-amylase enzyme; 100 µg/mL (log 2)", "result": 92.1, "unit": "%"}]}
{"smiles": "C/C(=N\\N1C(=O)/C(=C/c2ccccc2O)NC1=S)c1ccccc1O", "note": "[Compound 4a, 5-(2-Hydroxybenzylidene)-3-(2-hydroxyphenylethylidene)-amino-2-thioxoimidazolidin-4-one]", "values": [{"measurement": "pIC50", "setting": "[1]", "result": 4.24}, {"measurement": "inhibition at 1 µg/mL", "setting": "[1]", "result": 24.5, "unit": "%"}, {"measurement": "inhibition at 10 µg/mL", "setting": "[1]", "result": 44.9, "unit": "%"}, {"measurement": "inhibition at 100 µg/mL", "setting": "[1]", "result": 62.6, "unit": "%"}, {"measurement": "inhibition at 1000 µg/mL", "setting": "[1]", "result": 83.1, "unit": "%"}, {"measurement": "melting point", "result": 256, "unit": "°C"}]}
{"smiles": "C/C(=N\\N1C(=O)/C(=C/c2cc(Br)ccc2O)NC1=S)c1ccccc1O", "note": "[Compound 4b, 5-(5-Bromo-2-hydroxybenzylidene)-3-(2-hydroxyphenylethylidene)-amino-2-thioxoimidazolidin-4-ones]", "values": [{"measurement": "pIC50", "setting": "[1]", "result": "~4.14"}, {"measurement": "inhibition at 1 µg/mL", "setting": "[1]", "result": 20.4, "unit": "%"}, {"measurement": "inhibition at 10 µg/mL", "setting": "[1]", "result": 36.4, "unit": "%"}, {"measurement": "inhibition at 100 µg/mL", "setting": "[1]", "result": 58.9, "unit": "%"}, {"measurement": "inhibition at 1000 µg/mL", "setting": "[1]", "result": 84.7, "unit": "%"}, {"measurement": "melting point", "result": 263, "unit": "°C"}]}
{"smiles": "COC(=O)CCN1C(=S)N(/N=C(\\C)c2ccccc2O)C(=O)/C1=C/c1cc(Br)ccc1O", "note": "[Compound 5b, Methyl [5-(5-Bromo-2-hydroxybenzylidene)-4-oxo-3-(2-hydroxyphenylethylidene)amino-2-thioxoimidazolidin-1-yl] propionate]", "values": [{"measurement": "pIC50", "setting": "[1]", "result": 4.67}, {"measurement": "inhibition at 1 µg/mL", "setting": "[1]", "result": 27.6, "unit": "%"}, {"measurement": "inhibition at 10 µg/mL", "setting": "[1]", "result": 50.3, "unit": "%"}, {"measurement": "inhibition at 100 µg/mL", "setting": "[1]", "result": 71.4, "unit": "%"}, {"measurement": "inhibition at 1000 µg/mL", "setting": "[1]", "result": 87.4, "unit": "%"}, {"measurement": "melting point", "result": 192, "unit": "°C"}]}
{"smiles": "COC(=O)CCN1C(=S)N(/N=C(\\C)c2ccccc2O)C(=O)/C1=C/c1cc(Br)ccc1OC(C)=O", "note": "[Compound 7b, Methyl [5-(5-bromo-2-acetoxybenzylidene)-4-oxo-3-(2-hydroxyphenylethylidene)amino-2-thioxoimidazolidin-1-yl] propionate]", "values": [{"measurement": "pIC50", "setting": "[1]", "result": 4.66}, {"measurement": "inhibition at 1 µg/mL", "setting": "[1]", "result": 28, "unit": "%"}, {"measurement": "inhibition at 10 µg/mL", "setting": "[1]", "result": 47.8, "unit": "%"}, {"measurement": "inhibition at 100 µg/mL", "setting": "[1]", "result": 70.4, "unit": "%"}, {"measurement": "inhibition at 1000 µg/mL", "setting": "[1]", "result": 86.5, "unit": "%"}, {"measurement": "melting point", "result": 172, "unit": "°C"}]}
{"smiles": "Cc1c(C)c2c(c(C)c1O)CCC(C)(C(=O)O)O2", "note": "(stereo not shown) [Trolox, reference compound]", "values": [{"measurement": "%RSA (DPPH radical scavenging activity)", "setting": "[2]; 3.12 µg/mL", "result": 11.3811, "unit": "%"}, {"measurement": "%RSA (DPPH radical scavenging activity)", "setting": "[2]; 6.25 µg/mL", "result": 20.2046, "unit": "%"}, {"measurement": "%RSA (DPPH radical scavenging activity)", "setting": "[2]; 12.5 µg/mL", "result": 32.4808, "unit": "%"}, {"measurement": "%RSA (DPPH radical scavenging activity)", "setting": "[2]; 25 µg/mL", "result": 47.4425, "unit": "%"}, {"measurement": "%RSA (DPPH radical scavenging activity)", "setting": "[2]; 50 µg/mL", "result": 63.2992, "unit": "%"}, {"measurement": "%RSA (DPPH radical scavenging activity)", "setting": "[2]; 100 µg/mL", "result": 82.6087, "unit": "%"}, {"measurement": "%RSA (DPPH radical scavenging activity)", "setting": "[2]; 200 µg/mL", "result": 89.0026, "unit": "%"}, {"measurement": "DPPH free radical scavenging IC50", "setting": "[2]; n = 4", "result": 58.09, "unit": "µg/mL"}]}
